Test system: Plasmodium berghei
Experiment: Luciferase/luciferin-expressing antifolate-resistant parasites were used to infect a culture of HepG2 cells that were pre-incubated with compounds. Infected hepatocytes emit light due to the luciferase reaction. Assay results are presented as the percent inhibition of light emission compared to control. […]
Type: functional
Conditions: sporozoite; for IC90: read-out: LUCIFERASE INFECTION ASSAY - IC90
[1] = read-out: LUCIFERASE INFECTION ASSAY - IC50

## COc1cc(-c2ccc3ncc(-c4cccc(NC(C)=O)c4)n3n2)cc(OC)c1OC
HEPG2TOX_HILL_SLOPE 0.736, HEPG2TOX_R_SQUARED 0.983, PBLUC_HILL_SLOPE 1.49, PBLUC_R_SQUARED 0.582, read-out: LUCIFERASE INFECTION ASSAY - IC50
  IC50: 0.995 µM
  IC90: 4.34 µM

## CC(C)NC(=O)c1csc(C(O)c2ccc(C(C)(C)C)cc2)n1 (centres undefined)
HEPG2TOX_HILL_SLOPE 1.76, HEPG2TOX_R_SQUARED 0.8, PBLUC_HILL_SLOPE 2.52, PBLUC_R_SQUARED 0.456, read-out: LUCIFERASE INFECTION ASSAY - IC50
  IC50: 3.68 µM
  IC90: 8.8 µM

## Cn1c(NCC2CC2)nc2cnc(Nc3cccc(Oc4ccccc4)c3)cc21
HEPG2TOX_HILL_SLOPE 1.32, HEPG2TOX_R_SQUARED 0.983, PBLUC_HILL_SLOPE 3.67, PBLUC_R_SQUARED 0.52, read-out: LUCIFERASE INFECTION ASSAY - IC50
  IC50: 2.07 µM
  IC90: 3.77 µM

## O=C1CC(c2ccc(Cl)cc2)Cc2c1cnn2-c1ccc(Cl)cc1 (centres undefined)
HEPG2TOX_HILL_SLOPE 2.3, HEPG2TOX_R_SQUARED 0.887, PBLUC_HILL_SLOPE 1.56, PBLUC_R_SQUARED 0.715, read-out: LUCIFERASE INFECTION ASSAY - IC50
  IC50: 2.9 µM
  IC90: > 9.24 µM

## Cc1cc(C(=O)C(C)OC(=O)c2ccc(S(=O)(=O)N3CC(C)CC(C)C3)cc2)c(C)n1-c1ccc(Cl)cc1 (centres undefined)
FFLUC_HILL_SLOPE 16.1, FFLUC_R_SQUARED 0.63, HEPG2TOX_HILL_SLOPE 1.41, HEPG2TOX_R_SQUARED 0.912, PBLUC_HILL_SLOPE 53.4, PBLUC_R_SQUARED 0.359, read-out: LUCIFERASE INFECTION ASSAY - IC50
  IC50: 3.33 µM
  IC90: 3.47 µM

## CC(C)CCCC(C)C1CCC2(C)C3=C(CCC12C)C1(C)CCC(=O)C(C)(C)C1CC3 (centres undefined)
HEPG2TOX_HILL_SLOPE 3.93, HEPG2TOX_R_SQUARED 0.974, PBLUC_HILL_SLOPE 2.18, PBLUC_R_SQUARED 0.307, read-out: LUCIFERASE INFECTION ASSAY - IC50
  IC50: 2.4 µM
  IC90: 6.57 µM

## CN(C)CCNc1nc2sc3c(c2c(=O)n1-c1ccccc1)CCCCC3
PBLUC_HILL_SLOPE 1.45, PBLUC_R_SQUARED 0.611, read-out: LUCIFERASE INFECTION ASSAY - IC50
  IC50: 8.23 µM
  IC90: > 8.63 µM

## CN(C(=O)CCN1C(=O)CCC1=O)c1ccccc1
[1]
  IC50: > 10 µM
  IC90: > 10 µM

## CC(Nc1ccc(Oc2ccc(Br)cc2)cc1)C(=O)Nc1ccc(S(N)(=O)=O)cc1 (centres undefined)
FFLUC_HILL_SLOPE 6.08, FFLUC_R_SQUARED 0.0812, PBLUC_HILL_SLOPE 2.58, PBLUC_R_SQUARED 0.863, read-out: LUCIFERASE INFECTION ASSAY - IC50
  IC50: 4.82 µM
  IC90: > 10 µM

## C[n+]1c(-c2ccccc2)cc(CCCCc2cc(-c3ccccc3)[n+](C)c(-c3ccccc3)c2)cc1-c1ccccc1
HEPG2TOX_HILL_SLOPE 8.54, HEPG2TOX_R_SQUARED 0.649, PBLUC_HILL_SLOPE 17.9, PBLUC_R_SQUARED 0.599, read-out: LUCIFERASE INFECTION ASSAY - IC50
  IC50: 9.47 µM
  IC90: > 10 µM

## Cc1nc(-c2ccc3c(c2)CCN3C(=O)C2(C)Cc3ccccc3C(=O)O2)cs1 (centres undefined)
PBLUC_HILL_SLOPE 2.39, PBLUC_R_SQUARED 0.602, read-out: LUCIFERASE INFECTION ASSAY - IC50
  IC50: 4.47 µM
  IC90: > 10 µM

## CN1N=C(SCc2ccc(Cl)cc2Cl)Sc2c1cnn(C)c2=O
PBLUC_HILL_SLOPE 2.78, PBLUC_R_SQUARED 0.171, read-out: LUCIFERASE INFECTION ASSAY - IC50
  IC50: 5.14 µM
  IC90: > 8.52 µM

## CN(C)c1ccc(-c2cnc3cnc(-c4ccc(O)cc4)cn23)cc1
HEPG2TOX_HILL_SLOPE 0.921, HEPG2TOX_R_SQUARED 0.948, PBLUC_HILL_SLOPE 0.805, PBLUC_R_SQUARED 0.912, read-out: LUCIFERASE INFECTION ASSAY - IC50
  IC50: 0.115 µM
  IC90: 1.76 µM

## CC12CC3CC(C1)CC(c1ccc(O)cc1)(C3)C2
[1]
  IC50: > 10 µM
  IC90: > 10 µM

## Clc1ccccc1/C=C/c1nc(-c2ccccn2)no1
FFLUC_HILL_SLOPE 3.15, FFLUC_R_SQUARED 0.695, PBLUC_HILL_SLOPE 0.408, PBLUC_R_SQUARED 0.784, read-out: LUCIFERASE INFECTION ASSAY - IC50
  IC50: 0.446 µM
  IC90: > 11.6 µM

## O=C(NCCc1ccccn1)c1ccc(Cl)c(S(=O)(=O)N(Cc2ccccc2)c2cccc(C(F)(F)F)c2)c1
PBLUC_HILL_SLOPE 3, PBLUC_R_SQUARED 0.619, read-out: LUCIFERASE INFECTION ASSAY - IC50
  IC50: 1.73 µM
  IC90: 3.59 µM

## O=C(Nc1nc(-c2ccccn2)cs1)c1cc([N+](=O)[O-])ccc1N1CCC(Cc2ccccc2)CC1
[1]
  IC50: > 10 µM
  IC90: > 10 µM

## Cn1cc(-c2cn3c(-c4ccc(O)cc4)cnc3cn2)cn1
HEPG2TOX_HILL_SLOPE 9.44, HEPG2TOX_R_SQUARED 0.67, PBLUC_HILL_SLOPE 2.21, PBLUC_R_SQUARED 0.503, read-out: LUCIFERASE INFECTION ASSAY - IC50
  IC50: 6.85 µM
  IC90: > 11.3 µM

## FC(F)(F)c1cc(Nc2nc(C(F)(F)F)cs2)cc(C(F)(F)F)c1
HEPG2TOX_HILL_SLOPE 11.5, HEPG2TOX_R_SQUARED 0.969, PBLUC_HILL_SLOPE 12.1, PBLUC_R_SQUARED 0.577, read-out: LUCIFERASE INFECTION ASSAY - IC50
  IC50: 3.03 µM
  IC90: 3.63 µM

## CCCCOc1ccc(C(=O)Nc2ccc(N(c3ccccc3)C(C)C)cc2)cc1OCC
[1]
  IC50: > 10 µM
  IC90: > 10 µM

## CC(OC(=O)c1ccccc1O)C(N)=O (centres undefined)
[1]
  IC50: > 10 µM
  IC90: > 10 µM

## COc1ccc(OC)c(CCNc2nc3cnc(-c4ccccc4C)cc3n2C)c1
HEPG2TOX_HILL_SLOPE 0.343, HEPG2TOX_R_SQUARED 0.532, PBLUC_HILL_SLOPE 5.82, PBLUC_R_SQUARED 0.631, read-out: LUCIFERASE INFECTION ASSAY - IC50
  IC50: 0.0325 µM
  IC90: 0.0474 µM

## CN(C)C(=O)COC(=O)c1cccc(CN2C(=O)c3ccccc3C2=O)c1
[1]
  IC50: > 10 µM
  IC90: > 10 µM

## c1ccc(C(Nc2ncnc3sccc23)c2ccco2)cc1 (centres undefined)
PBLUC_HILL_SLOPE 17.3, PBLUC_R_SQUARED 0.0145, read-out: LUCIFERASE INFECTION ASSAY - IC50
  IC50: 8.98 µM
  IC90: > 10 µM

## OC1CCC(Nc2nn3c(-c4ccc5ccccc5c4)cnc3s2)CC1 (centres undefined)
[1]
  IC50: > 9.05 µM
  IC90: > 9.05 µM

## CCc1ccc(NC(=O)COc2c(Cl)cc(Cl)c3ccc(C)nc23)cc1
HEPG2TOX_HILL_SLOPE 1.5, HEPG2TOX_R_SQUARED 0.996, PBLUC_HILL_SLOPE 3.18, PBLUC_R_SQUARED 0.331, read-out: LUCIFERASE INFECTION ASSAY - IC50
  IC50: 0.657 µM
  IC90: 1.31 µM

## CC(C)Cc1ccc(CN2CCc3c(c(C(=O)N(C)Cc4cscn4)nn3CC3CC3)C2)cc1
PBLUC_HILL_SLOPE 8.64, PBLUC_R_SQUARED 0.119, read-out: LUCIFERASE INFECTION ASSAY - IC50
  IC50: 5.84 µM
  IC90: > 6.91 µM

## COc1ccc(-c2nn(-c3ccccc3)cc2/C=C/C(=O)N2CCc3ccccc32)cc1OC
[1]
  IC50: > 10 µM
  IC90: > 10 µM

## Cc1cc(C)nc(N/N=C/c2c(C)nn(-c3ccccc3)c2Sc2nc3ccccc3s2)n1
[1]
  IC50: > 10 µM
  IC90: > 10 µM

## COC(=O)c1sc(SCCOC(=O)Nc2ccc(OC(F)(F)F)cc2)c2c1CC(C)(C)CC2=O
FFLUC_HILL_SLOPE 7.12, FFLUC_R_SQUARED 0.0522, read-out: LUCIFERASE INFECTION ASSAY - IC50
  IC50: > 6.38 µM
  IC90: > 6.38 µM

## NC(=O)c1cc(Cl)ccc1OCc1ccc(OC(F)(F)F)cc1
[1]
  IC50: > 10 µM
  IC90: > 10 µM

## COc1cc(-n2cnc3cnc(Nc4cccc(C(F)(F)F)c4)cc32)cc(OC)c1OC
[1]
  IC50: > 10 µM
  IC90: > 10 µM

## C=CCOc1cccc(C(=O)N(C)Cc2nc(-c3ccc(Cl)cc3)no2)c1
[1]
  IC50: > 8.6 µM
  IC90: > 8.6 µM

## Cc1ccc(C(C)NC(=O)Cc2c(C)[nH]c(-c3ccccn3)nc2=O)cc1 (centres undefined)
HEPG2TOX_HILL_SLOPE 4.86, HEPG2TOX_R_SQUARED 0.498, PBLUC_HILL_SLOPE 12, PBLUC_R_SQUARED 0.399, read-out: LUCIFERASE INFECTION ASSAY - IC50
  IC50: 9.36 µM
  IC90: > 10 µM

## COc1ccc(Cl)cc1NC(=O)COC(=O)COc1ccc(/C=C2\SC(=S)N(c3cccc(C(F)(F)F)c3)C2=O)cc1OC
FFLUC_HILL_SLOPE 3.19, FFLUC_R_SQUARED 0.292, read-out: LUCIFERASE INFECTION ASSAY - IC50
  IC50: > 10 µM
  IC90: > 10 µM

## CCCC1C/C(=C/c2ccc(C(=O)NC)cc2)C(=O)/C(=C/c2ccc(C(=O)NC)cc2)C1 (centres undefined)
[1]
  IC50: 3.29 µM
  IC90: 3.86 µM

## CCN1C(=O)N(Cc2cccc(OC)c2)C(=O)C12CCN(C(C)CCc1c[nH]c3ccccc13)CC2 (centres undefined)
HEPG2TOX_HILL_SLOPE 4.28, HEPG2TOX_R_SQUARED 0.784, PBLUC_HILL_SLOPE 3.57, PBLUC_R_SQUARED 0.572, read-out: LUCIFERASE INFECTION ASSAY - IC50
  IC50: 3 µM
  IC90: 5.56 µM
